# Target: human fatty acid synthase FASN (Homo sapiens (Human), UniProt P49327)
# Test: Biochemical activity testing of human fatty acid synthase FASN (NADPH fluorescence intensity enzyme assay)
# Details: human recombinant full-length fatty acid synthase
# Text: Biochemical activity testing of human fatty acid synthase FASN
# Fatty acid synthase FASN is a multifunctional enzyme with seven catalytic activities thereby synthesising long chain fatty acids especially palmitoyl-CoA in the presence of co-factor NADPH starting from the substrates acetyl-CoA and malonyl-CoA. The reductive synthesis is realized by the oxidation of NADPH to NADP. Since NADPH has a high fluorescence intensity quantum yield compared to NADP with excitation at 340 nm and emission at 460 nm, the reaction can be monitored via the decrease in fluorescence intensity. The biochemical FASN activity testing was performed as 384 well two-time-point kinetic fluorescence intensity assay format in Greiner low volume medium binding 384-well black microtiter plates in a total assay volume of 8 μl and was used for high throughput screen. In each well 3 μl 40 nM human recombinant full-length fatty acid synthase (produced in-house in SF9 cells) were dispensed in the following assay buffer: 50 mM potassium phosphate buffer pH 7.0, 0.005% (w/v) BSA, 2 mM Glutathione, 0.02% Tween-20. Then 2 μl of 200 μM NADPH in assay buffer were added, followed by the addition of the test compounds in 10 dilution concentrations starting with 30 μM (final concentration) to get a final DMSO content of 1% (v/v). The mixture was incubated for at least 15 min at room temperature. After the pre-incubation the enzymatic reaction was started by the addition of 2 μl substrate solution (80 μM acetyl-CoA, 240 μM malonyl-CoA). A first fluorescence intensity measurement (time point one) was performed with an Envision multimode reader (Perkin Elmer LAS Germany GmbH) at excitation wavelength 340 nm (lamp mode) and emission wavelength 460 nm. The reaction was incubated for 30 minutes at room temperature. After this the fluorescence intensity was measured again in the Envision using the same parameters as described above (second time point measurement). The data were analysed by subtracting the first time point measurement value from the second time point measurement value (after the enzymatic reaction). The differences of the emission signals were determined. These reflect directly the conversion rate of NADPH. The full value used was the inhibitor-free reaction. A pharmacological zero value was used like GSK837149A (Sigma-Aldrich) in a final concentration of 5-10 μM. The inhibitory values (IC50) were determined using either the program Symyx Assay Explorer® or Condosseo® from GeneData.
# Chain of human fatty acid synthase FASN (P49327 whole entry): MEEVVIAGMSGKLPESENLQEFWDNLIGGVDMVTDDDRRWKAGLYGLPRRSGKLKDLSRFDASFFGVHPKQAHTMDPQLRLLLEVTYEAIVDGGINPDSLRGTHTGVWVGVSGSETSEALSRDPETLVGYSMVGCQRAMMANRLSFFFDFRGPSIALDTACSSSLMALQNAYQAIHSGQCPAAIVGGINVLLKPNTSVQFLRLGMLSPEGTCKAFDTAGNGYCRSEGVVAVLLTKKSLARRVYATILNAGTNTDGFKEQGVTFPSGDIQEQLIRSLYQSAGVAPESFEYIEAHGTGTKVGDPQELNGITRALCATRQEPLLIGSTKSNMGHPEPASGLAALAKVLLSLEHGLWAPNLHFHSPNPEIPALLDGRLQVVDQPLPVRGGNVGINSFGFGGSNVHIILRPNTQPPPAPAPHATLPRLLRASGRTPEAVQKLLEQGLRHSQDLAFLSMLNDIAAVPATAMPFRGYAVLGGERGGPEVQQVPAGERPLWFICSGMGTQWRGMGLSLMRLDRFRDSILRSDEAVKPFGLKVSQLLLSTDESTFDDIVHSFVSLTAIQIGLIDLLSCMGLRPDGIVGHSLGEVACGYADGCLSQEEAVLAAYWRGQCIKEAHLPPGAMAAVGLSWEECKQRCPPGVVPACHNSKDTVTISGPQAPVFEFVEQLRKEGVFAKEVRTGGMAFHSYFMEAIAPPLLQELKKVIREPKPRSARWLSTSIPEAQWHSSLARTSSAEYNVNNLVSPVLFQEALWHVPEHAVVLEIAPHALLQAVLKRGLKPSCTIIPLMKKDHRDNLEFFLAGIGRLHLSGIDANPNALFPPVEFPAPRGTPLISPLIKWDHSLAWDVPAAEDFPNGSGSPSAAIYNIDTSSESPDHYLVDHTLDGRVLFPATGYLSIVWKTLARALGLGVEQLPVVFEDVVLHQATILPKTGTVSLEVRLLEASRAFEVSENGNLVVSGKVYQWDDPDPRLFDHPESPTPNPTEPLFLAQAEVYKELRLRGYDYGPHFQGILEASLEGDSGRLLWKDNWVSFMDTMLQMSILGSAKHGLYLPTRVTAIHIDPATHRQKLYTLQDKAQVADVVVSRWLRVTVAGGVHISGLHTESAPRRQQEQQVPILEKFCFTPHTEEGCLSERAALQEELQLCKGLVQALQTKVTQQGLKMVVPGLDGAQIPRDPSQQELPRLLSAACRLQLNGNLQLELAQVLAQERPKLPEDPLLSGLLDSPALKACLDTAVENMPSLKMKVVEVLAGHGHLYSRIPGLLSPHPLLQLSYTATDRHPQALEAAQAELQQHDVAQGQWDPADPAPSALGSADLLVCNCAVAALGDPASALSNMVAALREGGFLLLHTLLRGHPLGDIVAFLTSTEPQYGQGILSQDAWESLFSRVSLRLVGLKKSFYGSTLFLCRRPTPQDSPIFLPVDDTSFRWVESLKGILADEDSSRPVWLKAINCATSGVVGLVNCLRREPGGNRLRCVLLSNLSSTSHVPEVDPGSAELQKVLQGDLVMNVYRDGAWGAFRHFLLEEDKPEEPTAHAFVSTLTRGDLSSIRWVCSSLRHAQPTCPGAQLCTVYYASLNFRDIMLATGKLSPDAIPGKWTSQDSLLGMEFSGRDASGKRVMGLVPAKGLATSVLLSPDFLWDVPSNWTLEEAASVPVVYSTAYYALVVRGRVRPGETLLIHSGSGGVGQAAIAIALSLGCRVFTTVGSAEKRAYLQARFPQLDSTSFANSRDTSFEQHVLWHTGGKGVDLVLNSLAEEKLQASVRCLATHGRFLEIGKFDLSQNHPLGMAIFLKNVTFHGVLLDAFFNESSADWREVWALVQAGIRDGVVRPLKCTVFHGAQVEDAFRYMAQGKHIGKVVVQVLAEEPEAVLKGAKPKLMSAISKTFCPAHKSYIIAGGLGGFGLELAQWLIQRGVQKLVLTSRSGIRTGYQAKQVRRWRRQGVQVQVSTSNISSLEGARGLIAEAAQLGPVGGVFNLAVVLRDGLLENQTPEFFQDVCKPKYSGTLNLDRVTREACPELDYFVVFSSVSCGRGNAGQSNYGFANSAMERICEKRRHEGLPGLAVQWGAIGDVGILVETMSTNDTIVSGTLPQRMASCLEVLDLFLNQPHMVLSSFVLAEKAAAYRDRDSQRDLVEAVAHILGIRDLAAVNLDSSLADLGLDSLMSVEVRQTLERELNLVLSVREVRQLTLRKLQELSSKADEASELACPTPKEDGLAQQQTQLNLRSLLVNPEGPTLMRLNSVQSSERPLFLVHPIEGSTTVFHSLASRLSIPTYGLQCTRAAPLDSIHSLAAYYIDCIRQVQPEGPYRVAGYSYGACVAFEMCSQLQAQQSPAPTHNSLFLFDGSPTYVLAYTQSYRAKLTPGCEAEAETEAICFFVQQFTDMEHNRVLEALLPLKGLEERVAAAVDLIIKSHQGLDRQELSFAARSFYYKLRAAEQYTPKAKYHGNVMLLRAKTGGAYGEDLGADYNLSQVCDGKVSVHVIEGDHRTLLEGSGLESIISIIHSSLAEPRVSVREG
row,IC50 [nM],Compound
1,< 300,"CCC(=O)N[C@H]1CC[C@@H](N(C)C(=O)c2ccc(-c3ccncc3)cc2)C1 [Compound A4, N-methyl-N-((1R,3S)-3-propionylamino-cyclopentyl)-4-pyridin-4-yl-benzamide]"
2,< 300,"CCC(=O)N[C@H]1CC[C@@H](N(C)C(=O)c2ccc(-c3nc4ccccc4[nH]3)cc2)C1 [Compound A7, 4-(1H-benzimidazol-2-yl)-N-methyl-N-((1R,3S)-3-propionylamino-cyclopentyl)-benzamide]"
3,< 300,"CCC(=O)N[C@H]1CC[C@@H](N(C)C(=O)c2ccc(-c3ccccc3)cc2)C1 [Compound A8, biphenyl-4-carboxylic acid methyl-((1R,3S)-3-propionylamino-cyclopentyl)-amide]"
4,3000 to 50000,"CCC(=O)N[C@H]1CC[C@@H](N(C)C(=O)c2ccc(-c3ncc[nH]3)cc2)C1 [Compound A11, 4-(1H-imidazol-2-yl)-N-methyl-N-((1R,3S)-3-propionylamino-cyclopentyl)-benzamide]"
5,< 300,"CCC(=O)N[C@H]1CC[C@@H](N(C)C(=O)c2ccc(C#Cc3ccc(Cl)cc3)cc2)C1 [Compound A14, 4-(4-chloro-phenylethynyl)-N-methyl-N-((1R,3S)-3-propionylamino-cyclopentyl)-benzamide]"
6,< 300,"CC(C)C(=O)N[C@H]1CC[C@@H](N(C)C(=O)c2ccc(-c3nc4ccccc4o3)cc2)C1 [Compound A17, 4-benzoxazol-2-yl-N-((1R,3S)-3-isobutyrylamino-cyclopentyl)-N-methyl-benzamide]"
7,< 300,"CC(C)CCC(=O)N[C@H]1CC[C@@H](N(C)C(=O)c2ccc(-c3nc4ccccc4o3)cc2)C1 [Compound A19, 4-benzoxazol-2-yl-N-methyl-N-[(1R,3S)-3-(4-methyl-pentanoylamino)-cyclopentyl]-benzamide]"
8,300 to 3000,"CN(C(=O)c1ccc(-c2nc3ccccc3o2)cc1)[C@@H]1CC[C@H](NC(=O)c2ccccc2)C1 [Compound A20, 4-benzoxazol-2-yl-N-((1R,3S)-3-benzoylamino-cyclopentyl)-N-methyl-benzamide]"
9,< 300,"CN(C(=O)c1ccc(-c2nc3ccccc3o2)cc1)[C@@H]1CC[C@H](NC(=O)C2CCCC2)C1 [Compound A21, 4-benzoxazol-2-yl-N-[(1R,3S)-3-(cyclopentanecarbonyl-amino)-cyclopentyl]-N-methyl-benzamide]"

# The remaining lines, values behind:
row,Compound,IC50 [nM]
1,"CCC(=O)N[C@H]1CC[C@@H](N(C)C(=O)c2ccc(-c3nc4ccccc4o3)cc2)C1 [Compound A1, 4-benzoxazol-2-yl-N-methyl-N-((1R,3S)-3-propionylamino-cyclopentyl)-benzamide]",< 300
2,"CN(C(=O)c1ccc(-c2nc3ccccc3o2)cc1)[C@@H]1CC[C@H](NC(=O)C2CC2)C1 [Compound A2, 4-benzoxazol-2-yl-N-[(1R,3S)-3-(cyclopropanecarbonyl-amino)-cyclopentyl]-N-methyl-benzamide]",< 300
3,"CN(C(=O)c1ccc(-c2nc3ccccc3o2)cc1)[C@@H]1CC[C@H](NC(=O)C2(C)CC2)C1 [Compound A3, 4-benzoxazol-2-yl-N-methyl-N-{(1R,3S)-3-[(1-methyl-cyclopropanecarbonyl)-amino]-cyclopentyl}-benzamide]",< 300
4,"CCC(=O)N[C@H]1CC[C@@H](N(C)C(=O)c2ccc(-c3ccc(Cl)cc3)cc2)C1 [Compound A5, 4′-chloro-biphenyl-4-carboxylic acid methyl-((1R,3S)-3-propionylamino-cyclopentyl)-amide]",< 300
5,"CCC(=O)N[C@H]1CC[C@@H](N(C)C(=O)c2ccc(-c3nc4ccccc4s3)cc2)C1 [Compound A6, 4-benzothiazol-2-yl-N-methyl-N-((1R,3S)-3-propionylamino-cyclopentyl)-benzamide]",< 300
6,"CCC(=O)N[C@H]1CC[C@@H](N(C)C(=O)c2ccc(-c3nc4cc(Cl)ccc4o3)cc2)C1 [Compound A9, 4-(5-chloro-benzoxazol-2-yl)-N-methyl-N-((1R,3S)-3-propionylamino-cyclopentyl)-benzamide]",< 300
7,"CCC(=O)N[C@H]1CC[C@@H](N(C)C(=O)c2ccc(-c3cn4cccnc4n3)cc2)C1 [Compound A10, 4-imidazo[1,2-a]pyrimidin-2-yl-N-methyl-N-((1R,3S)-3-propionylamino-cyclopentyl)-benzamide]",< 300
8,"CCC(=O)N[C@H]1CC[C@@H](N(C)C(=O)c2ccc(-c3ccc(C#N)cc3)cc2)C1 [Compound A12, 4′-cyano-biphenyl-4-carboxylic acid methyl-((1R,3S)-3-propionylamino-cyclopentyl)-amide]",< 300
9,"CCC(=O)N[C@H]1CC[C@@H](N(C)C(=O)c2ccc(-c3nc4ccccc4o3)c(OC)c2)C1 [Compound A13, 4-benzoxazol-2-yl-3-methoxy-N-methyl-N-((1R,3S)-3-propionylamino-cyclopentyl)-benzamide]",< 300
10,"CCC(=O)N[C@H]1CC[C@@H](N(C)C(=O)c2ccc(C#Cc3ccncc3)cc2)C1 [Compound A15, N-methyl-N-((1R,3S)-3-propionylamino-cyclopentyl)-4-pyridin-4-ylethynyl-benzamide]",< 300
11,"CCC(=O)N[C@H]1CC[C@@H](N(C)C(=O)c2ccc(-c3nc4ccccc4o3)cn2)C1 [Compound A16, 5-benzoxazol-2-yl-pyridine-2-carboxylic acid methyl-((1R,3S)-3-propionylamino-cyclopentyl)-amide]",< 300
12,"CC(=O)N[C@H]1CC[C@@H](N(C)C(=O)c2ccc(-c3nc4ccccc4o3)cc2)C1 [Compound A18, N-((1R,3S)-3-acetylamino-cyclopentyl)-4-benzooxazol-2-yl-N-methyl-benzamide]",< 300
13,"CN(C(=O)c1ccc(-c2nc3ccccc3o2)cc1)[C@@H]1CC[C@H](NC(=O)c2ccncc2)C1 [Compound A22, N-{(1S,3R)-3-[(4-benzoxazol-2-yl-benzoyl)-methyl-amino]-cyclopentyl}-isonicotinamide]",300 to 3000
14,"CN(C(=O)c1ccc(-c2nc3ccccc3o2)cc1)[C@@H]1CC[C@H](NC(=O)Cc2ccccc2)C1 [Compound A23, 4-benzoxazol-2-yl-N-methyl-N-((1R,3S)-3-phenylacetylamino-cyclopentyl)-benzamide]",< 300
15,"CCCCC(=O)N[C@H]1CC[C@@H](N(C)C(=O)c2ccc(-c3nc4ccccc4o3)cc2)C1 [Compound A24, 4-benzoxazol-2-yl-N-methyl-N-((1R,3S)-3-pentanoylamino-cyclopentyl)-benzamide]",< 300
16,"CN(C(=O)c1ccc(-c2nc3ccccc3o2)cc1)[C@@H]1CC[C@H](NC(=O)C(F)(F)C(F)(F)F)C1 [Compound A25, 4-benzoxazol-2-yl-N-methyl-N-[(1R,3S)-3-(2,2,3,3,3-pentafluoro-propionylamino)-cyclopentyl]-benzamide]",300 to 3000
17,"CCC(C)CC(=O)N[C@H]1CC[C@@H](N(C)C(=O)c2ccc(-c3nc4ccccc4o3)cc2)C1 (stereo partly drawn) [Compound A26, 4-benzoxazol-2-yl-N-methyl-N-[(1R,3S)-3-(3-methyl-pentanoylamino)-cyclopentyl]-benzamide]",< 300
18,"CCC(F)(F)C(=O)N[C@H]1CC[C@@H](N(C)C(=O)c2ccc(-c3nc4ccccc4o3)cc2)C1 [Compound A27, 4-benzoxazol-2-yl-N-[(1R,3S)-3-(2,2-difluoro-butyrylamino)-cyclopentyl]-N-methyl-benzamide]",< 300
